# “And” between values parts separate entries of the source, which are not always exact repeats. Equal values may be shown once.
# System: 156681-154-R-J1-PDC complex spheroid viability
# Test: Anticancer human tumor 156681-154-R-J1-PDC patient-derived melanoma cell line growth inhibition [CLK]
# Conditions: for viability, T/C: stronger effect = lower value
# Description: A high-throughput screen of multi-cell type tumor spheroids was designed to identify active combinations of […] and targeted small molecules. Complex spheroids include a stromal component modeled by human endothelial cells (HUVEC) and fibroblasts modeled by human mesenchymal stem cells (MSCs). The concentration ranges selected for each drug and investigational agent were based upon clinically achievable concentrations if the clinical Cmax of the agent was known.
# Compounds. The drugs and investigational agents: cirtuvivint (SM08502; NSC835563), CC-671 (NSC850746), vemurafenib (NSC761431), tapotoclax (NSC804041), sotorasib (NSC818433), adagrasib (NSC831453), MRTX-1133 (NSC836407), BAY2416964 (NSC825713), copanlisib (NSC816437), inavolisib (NSC800729), abemaciclib (NSC768073), osimertinib (NSC779217), entinostat (NSC756642), eltanexor (KPT-8602, NSC794443), venetoclax (NSC766270), ceralasertib (NSC777638), bortezomib (NSC756655), olaparib (NSC753686), talazoparib (NSC767125), alisertib (NSC759677), peposertib (NSC802822), gemcitabine (NSC613327), 5-fluorouracil (NSC19893), SN-38 (NSC673596), oxaliplatin (NSC266046), paclitaxel (NSC125973), and doxorubicin (NSC123127), were obtained from the National Cancer Institute (NCI) Developmental Therapeutics Program Chemical Repository. The FDA-approved anticancer drug set is available from the Developmental Therapeutics Program at https://dtp.cancer.gov/organization/dscb/obtaining/available plates.htm. […] The stock solutions were prepared in dimethyl sulfoxide (DMSO, Sigma-Aldrich, St. Louis, MO, cat. D2650), except for the platinum complexes which were prepared in saline (Quality Biological, Gaithersburg, MD, cat. 114-055-101), at 800-fold the tested concentration and stored at -70 degrees C prior to their use. All drugs and investigational agents were tested over a range starting from a high concentration at or near the clinical Cmax and decreasing in half-log increments. If the clinical Cmax for an agent had not been determined, the highest concentration tested was 10 microM.
# Cell Culture. All cells were maintained in an incubator at 37 degrees C and 5% CO2 with 95% humidity. The PDC lines were cultured according to standard operating procedures established by the NCI PDMR. Briefly, all PDCs were thawed and cultured in Matrigel-coated flasks prepared with a working solution of 1X Ham's F-12 nutrient mix, without supplementation (Invitrogen, Waltham, MA, cat. 11765054), 100 U/mL penicillin-streptomycin (Invitrogen, cat. 15140122), and 2.5% Matrigel (Corning Inc., Corning, NY, cat. 354248) for the first three passages. The 947758-054-R-J2-PDC line was cultured in 6B/Colon 1A media, which includes advanced DMEM/F-12 (Thermo Fisher Scientific, cat. 12634028), 10 mM HEPES (Thermo Fisher Scientific, cat. 15630080), 1X GlutaMAX supplement (Thermo Fisher Scientific, cat. 35050061), 0.1 mg/mL primocin (InvivoGen, cat. ant-pm-2), 10% defined fetal bovine serum, heat inactivated (HyClone Laboratories Inc., cat. SH30070.03HI), 1.25 mM N-Acetyl-L-cysteine (Sigma-Aldrich, cat. A9165), 10 mM nicotinamide (Sigma-Aldrich, cat. N0636), 1X B-27 supplement (Thermo Fisher Scientific, cat. 17504044), 1X N-2 supplement (Thermo Fisher Scientific, cat. 17502048), and 10 microM Y-27632 dihydrochloride (Tocris Bioscience, cat. 1254). The 876862-298-R-J1-PDC was cultured in 6E media, which includes all 6B/Colon 1A media components plus 50% L-WRN conditioned media (ATCC, cat. CRL-3276), 50 ng/mL recombinant human EGF recombinant protein (hEGF; Thermo Fisher Scientific, cat. PHG0311), 10 ng/mL recombinant human fibroblast growth factor 10 (hGFG-10; PeproTech, cat. 100-26), 1 ng/mL recombinant human fibroblast growth factor 2 (hFGF-2; PeproTech, cat. 100-18B), and 1 µM prostaglandin E2 (PGE2; Tocris, cat. 2296). The 227483-062-R1-J1-PDC line was cultured in Panc media, containing all 6E components except hFGF-2, with the addition of 500 nM SB-431542 (Selleckchem, cat. S1067) and 10 nM gastrin (Tocris, cat. 3006). […]
# [1] = curve of first compound, second compound 0.0316 µM
# [2] = curve of first compound, second compound 0.1 µM
# [3] = curve of first compound, second compound 0.316 µM
# [4] = curve of first compound, second compound 1 µM
# [5] = curve of first compound, second compound 3.16 µM
# [6] = curve of first compound, second compound 10 µM
# [7] = second compound 0.0316 µM, first compound 0.0316 µM
# [8] = second compound 0.0316 µM, first compound 0.1 µM
# [9] = second compound 0.0316 µM, first compound 0.316 µM
# [10] = second compound 0.0316 µM, first compound 1 µM
# [11] = second compound 0.1 µM, first compound 0.0316 µM
# [12] = second compound 0.1 µM, first compound 0.1 µM
# [13] = second compound 0.1 µM, first compound 0.316 µM
# [14] = second compound 0.1 µM, first compound 1 µM
# [15] = second compound 0.316 µM, first compound 0.0316 µM
# [16] = second compound 0.316 µM, first compound 0.1 µM
# [17] = second compound 0.316 µM, first compound 0.316 µM
# [18] = second compound 0.316 µM, first compound 1 µM
# [19] = second compound 1 µM, first compound 0.0316 µM
# [20] = second compound 1 µM, first compound 0.1 µM
# [21] = second compound 1 µM, first compound 0.316 µM
# [22] = second compound 1 µM, first compound 1 µM
# [23] = second compound 3.16 µM, first compound 0.0316 µM
# [24] = second compound 3.16 µM, first compound 0.1 µM
# [25] = second compound 3.16 µM, first compound 0.316 µM
# [26] = second compound 3.16 µM, first compound 1 µM
# [27] = second compound 10 µM, first compound 0.0316 µM
# [28] = second compound 10 µM, first compound 0.1 µM
# [29] = second compound 10 µM, first compound 0.316 µM
# [30] = second compound 10 µM, first compound 1 µM
# 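Also: spheroids exposed to the agents for seven days.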
# 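For viability, T/C in this document: 100% = DMSO vehicle control viability.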
smiles,measurement,setting,value
CCN1CCN(Cc2ccc(Nc3ncc(F)c(-c4cc(F)c5nc(C)n(C(C)C)c5c4)n3)nc2)CC1 + CN1CCN(c2cc(C(=O)Nc3cc4cc(-c5cnn(C)c5)ccc4cn3)ccn2)CC1,IC50,[1],0.665 µM
same,IC50,[2],0.807 µM
same,IC50,[3],< 0.00316 µM
same,IC50,[4],< 0.00316 µM
same,IC50,[5],< 0.00316 µM
same,IC50,[6],< 0.00316 µM
same,"viability, T/C","second compound 0.0316 µM, first compound 0.00316 µM",97%
same,"viability, T/C","second compound 0.0316 µM, first compound 0.01 µM",94.9%
same,"viability, T/C",[7],87.5%
same,"viability, T/C",[8],77.6%
same,"viability, T/C",[9],71.8%
same,"viability, T/C",[10],39.1%
same,"viability, T/C","second compound 0.1 µM, first compound 0.00316 µM",96.2%
same,"viability, T/C","second compound 0.1 µM, first compound 0.01 µM",76.2%
same,"viability, T/C",[11],70.6%
same,"viability, T/C",[12],89.9%
same,"viability, T/C",[13],67.2%
same,"viability, T/C",[14],46.1%
same,"viability, T/C","second compound 0.316 µM, first compound 0.00316 µM",21.6%
same,"viability, T/C","second compound 0.316 µM, first compound 0.01 µM",21.1%
same,"viability, T/C",[15],17.8%
same,"viability, T/C",[16],23.1%
same,"viability, T/C",[17],18.7%
same,"viability, T/C",[18],9.12%
same,"viability, T/C","second compound 1 µM, first compound 0.00316 µM",0.15%
same,"viability, T/C","second compound 1 µM, first compound 0.01 µM",0.55%
same,"viability, T/C",[19],3.58%
same,"viability, T/C",[20],0.43%
same,"viability, T/C",[21],1.38%
same,"viability, T/C",[22],0.47%
same,"viability, T/C","second compound 3.16 µM, first compound 0.00316 µM",0.8%
same,"viability, T/C","second compound 3.16 µM, first compound 0.01 µM",1.88%
same,"viability, T/C",[23],0.12%
same,"viability, T/C",[24],1.66%
same,"viability, T/C",[25],2.74%
same,"viability, T/C",[26],1.56%
same,"viability, T/C","second compound 10 µM, first compound 0.00316 µM",0.1%
same,"viability, T/C","second compound 10 µM, first compound 0.01 µM",0.55%
same,"viability, T/C",[27],0.69%
same,"viability, T/C",[28],0.18%
same,"viability, T/C",[29],0.5%
same,"viability, T/C",[30],3.25%
O=C(c1cc(Cc2n[nH]c(=O)c3ccccc23)ccc1F)N1CCN(C(=O)C2CC2)CC1 + CN1CCN(c2cc(C(=O)Nc3cc4cc(-c5cnn(C)c5)ccc4cn3)ccn2)CC1,IC50,[1],> 10 µM
same,IC50,[2],> 10 µM
same,IC50,[3],< 0.0316 µM
same,IC50,[4],< 0.0316 µM
same,IC50,[5],< 0.0316 µM
same,IC50,[6],< 0.0316 µM
same,"viability, T/C",[7],104%
same,"viability, T/C",[8],110%
same,"viability, T/C",[9],89.1%
same,"viability, T/C",[10],76.5%
same,"viability, T/C","second compound 0.0316 µM, first compound 3.16 µM",75.3%
same,"viability, T/C","second compound 0.0316 µM, first compound 10 µM",64.6%
same,"viability, T/C",[11],87.9%
same,"viability, T/C",[12],74.5%
same,"viability, T/C",[13],70.3%
same,"viability, T/C",[14],74.4%
same,"viability, T/C","second compound 0.1 µM, first compound 3.16 µM",76.4%
same,"viability, T/C","second compound 0.1 µM, first compound 10 µM",55.7%
same,"viability, T/C",[15],19.1%
same,"viability, T/C",[16],19.4%
same,"viability, T/C",[17],20.1%
same,"viability, T/C",[18],18%
same,"viability, T/C","second compound 0.316 µM, first compound 3.16 µM",17.7%
same,"viability, T/C","second compound 0.316 µM, first compound 10 µM",21.2%
same,"viability, T/C",[19],0.14%
same,"viability, T/C",[20],1.63%
same,"viability, T/C",[21],0.21%
same,"viability, T/C",[22],0.5%
same,"viability, T/C","second compound 1 µM, first compound 3.16 µM",0.68%
same,"viability, T/C","second compound 1 µM, first compound 10 µM",1.61%
same,"viability, T/C",[23],0.08%
same,"viability, T/C",[24],1.74%
same,"viability, T/C",[25],1.83%
same,"viability, T/C",[26],0.06%
same,"viability, T/C","second compound 3.16 µM, first compound 3.16 µM",0.24%
same,"viability, T/C","second compound 3.16 µM, first compound 10 µM",0.71%
same,"viability, T/C",[27],0.1%
same,"viability, T/C",[28],2.76%
same,"viability, T/C",[29],1.36%
same,"viability, T/C",[30],2.17%
same,"viability, T/C","second compound 10 µM, first compound 3.16 µM",1.6%
same,"viability, T/C","second compound 10 µM, first compound 10 µM",0.56%
CC1(C)CCC(CN2CCN(c3ccc(C(=O)NS(=O)(=O)c4ccc(NCC5CCOCC5)c([N+](=O)[O-])c4)c(Oc4cnc5[nH]ccc5c4)c3)CC2)=C(c2ccc(Cl)cc2)C1,"viability, T/C",compound 0.0316 µM,112% and 88.5%
same,"viability, T/C",compound 0.1 µM,81.5% and 88.9%
same,"viability, T/C",compound 0.316 µM,88.7% and 90.4%
same,"viability, T/C",compound 1 µM,101% and 94.3%
same,"viability, T/C",compound 3.16 µM,68.2% and 77.1%
same,"viability, T/C",compound 10 µM,4.6% and 1.6%
same,IC50,curve of compound,4.39 µM and 4.78 µM
C#Cc1c(F)ccc2cc(O)cc(-c3ncc4c(N5CC6CCC(C5)N6)nc(OCC56CCCN5CC(F)C6)nc4c3F)c12 (stereo not drawn),"viability, T/C",compound 0.0316 µM,110% and 91.8%
same,"viability, T/C",compound 0.1 µM,86.9% and 94%
same,"viability, T/C",compound 0.316 µM,79.3% and 89.4%
same,"viability, T/C",compound 1 µM,89.2% and 83.5%
same,"viability, T/C",compound 3.16 µM,109% and 96.9%
same,"viability, T/C",compound 10 µM,99.2% and 101%
same,IC50,curve of compound,> 10 µM
